In patent publication US9872495B2, “Peptoid oligomers, pharmaceutical compositions and methods of using the same” (priority 2009, dated 2018):
≈ marks a conversion by molar mass, not a printed value.

Key:
[1] = system: Bacillus subtilis ATCC 6633; type: cell-based; conditions: ATCC 6633
Procedure: (§1) Antimicrobial activity was tested against the gram-negative strain Escherichia coli ATCC 25922, and […] strains Staphylococcus aureus ATCC 25923, and Bacillus subtilis ATCC 6633, according to the guidelines given in the document […]-A7 of the CLSI (Clinical and Laboratory Standards Institute; Clinical and Laboratory Standards Institute. Methods for Dilution Antimicrobial Susceptibility Tests for Bacteria That Grow Aerobically-Seventh Edition: Approved Standard CLSI document […]-A7. CLSI, Wayne, USA, 2006). This reference is incorporated herein in its entirety. Hemolytic activity was tested against fresh human erythrocytes.

[2] = system: Escherichia coli ATCC 25922; type: cell-based; conditions: ATCC 25922
Procedure: as §1

[3] = system: Staphylococcus aureus ATCC 25923; type: cell-based; conditions: ATCC 25923
Procedure: as §1

[4] = system: fresh human erythrocytes; assay: Hemolytic activity; type: cell-based; conditions: red cells of human
Procedure: Typically, toxicity is evaluated by hemolytic concentration50 (HC50), which measures the concentration of antimicrobial agents at which 50% of the erythrocytes in the culture are lysed. Significant hemolysis, as evaluated by HC50, was detectable only for peptide gramicidin S (40 μg/mL). […] In order to test hemolytic activity of peptoid oligomers further, more stringent parameters were used. Instead of HC50, hemolytic concentration10 (HC10) was used to evaluate hemolytic activity of peptoids used in this study. HC10 represents the concentration of antimicrobial agents where 10% of erythrocytes are lysed. HC10 values were detectable for only four peptoid oligomers. […] Antimicrobial activity was tested against the gram-negative strain Escherichia coli ATCC 25922, and […] strains Staphylococcus aureus ATCC 25923, and Bacillus subtilis ATCC 6633, according to the guidelines given in the document […]-A7 of the CLSI (Clinical and Laboratory Standards Institute; Clinical and Laboratory Standards Institute. Methods for Dilution Antimicrobial Susceptibility Tests for Bacteria That Grow Aerobically-Seventh Edition: Approved Standard CLSI document […]-A7. CLSI, Wayne, USA, 2006). This reference is incorporated herein in its entirety. Hemolytic activity was tested against fresh human erythrocytes.

[5] = system: MSSA (methicillin-sensitive) and MRSA (methicillin-resistant) S. aureus strains; type: cell-based, Staphylococcus aureus
Procedure: Experimental Design: • Twelve strains of MSSA (methicillin-sensitive) and MRSA (methicillin-resistant) S. aureus were cross-tested against two antibacterial peptoid oligomers.
[drawing 50] • Testing was accomplished with 96-well plates wherein each well contained LB media, the S. aureus strain, and a solution of the compound in ethanol at a specific concentration. • A twofold serial dilution of each compound was accomplished with pure ethanol starting from 0.5 mg/mL to 0.0039 mg/mL. • To determine the appropriate concentration of the bacterial strain for each well, the previously grown (overnight in LB media) cultures were diluted with LB media until the optical density at 595 nm (OD595˜OD600) was ˜0.005. • Each experiment was conducted in triplicate, e.g. testing of “Newman” S. aureus strain against a specific concentration of C(NapNdp)3 was replicated in three wells. • Control experiments were also conducted in absence of the compound, i.e. the plates contained only the bacterial strain, LB media, and ethanol. • The plates were incubated and gently shaken overnight (20 hours) at 37° C., and OD595 was read before (t=0) and after (t=20) incubation.
Specifically, along a dilution sequence, the well with the least OD595 after subtraction was determined to be the MIC.

CC(=O)N(CCCN)CC(=O)N(CC(=O)N(CCCN)CC(=O)N(CC(=O)N(CCCN)CC(=O)N(CC(N)=O)CC(c1ccccc1)c1ccccc1)CC(c1ccccc1)c1ccccc1)CC(c1ccccc1)c1ccccc1 [Compound 4, Ac(NapNdp)3]
MIC B. sub [1]: 1 µg/mL (≈ 0.898 µM)
MIC E. coli [2]: 15.6 µg/mL (≈ 14 µM)
MIC S. aureus [3]: 15.6 µg/mL (≈ 14 µM)
HC10 (concentration where 10% hemolysis is observed) [4]: >62.5 µg/mL
HC50 (concentration where 50% hemolysis is observed) [4]: >250 µg/mL
activity across strains of Staphylococcus aureus (in words) ([5]; clinical, community-acquired, and hospital strains, methicillin-sensitive and methicillin-resistant): active
MIC against Staphylococcus aureus strain ([5]; methicillin-sensitive) and (methicillin-resistant) strains): 15.6 µg/mL (≈ 14 µM)
